Data on 33 molecules can be found in the METLIN SMRT retention time set (Domingo-Almenara et al. 2019).

Molecules are shown by their SMILES.

A short description of this data set: gradient 5% acetonitrile 3 min, to 50% in 2 min, to 85% in 15 min, held 3 min, 100 µL/min. The conditions noted are these: column: Zorbax Extend-C18 2.1 x 50 mm; eluents: water / acetonitrile, 0.1% formic acid. The method, boiled down: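 Values are retention times taken from adduct peaks that software picked and an analyst inspected. The pure standards were run as mixtures of ~100 molecules on HPLC linked to a quadrupole time-of-flight mass spectrometer, in positive and negative ionization mode. A Zorbax Extend-C18 column (2.1 × 50 mm, 1.8 μm) was used at 100 μL/min with water and acetonitrile, each including 0.1% formic acid.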
In the case of `CCc1noc(NC(C)=O)c1-c1ccc(OC)c(S(=O)(=O)N2CCN(c3ncccn3)CC2)c1`, the RP-LC retention time turned out to be 723 s.
Under `COc1ccccc1OCC(O)CN1CCN(CC(=O)Nc2c(C)cccc2C)CC1` (stereo not drawn) stands 683 s; under `c1coc(CN2CC(Oc3ccc(-c4noc(C5CC5)n4)cc3)C2)c1`, 684 s; under `O=C(c1cnn2cccnc12)N1CCCC1c1ccccc1Cl` (stereo not drawn), 763 s.
In turn, `COc1ccccc1NC(=O)N1CCc2nc(-c3ccc(Cl)cc3)ncc2C1` displayed an RP-LC retention time of 948 s.
Under `Cc1cc2oc(C(=O)NCCc3nc(-c4ccccc4)no3)c(C)c2cc1C` stands 1210 s; under `Cc1nn2c(CNC(=O)c3ccccc3Br)c(C)nc2s1`, 610 s; under `CCOC(=O)N1CCC(c2nnc(-c3ccco3)s2)CC1`, 728 s.
The molecule `CCC(C)NC(=O)C1CCCN(c2ncccc2-c2noc(C3CCC3)n2)C1` (stereo not drawn) came in with an RP-LC retention time of 930 s.
Under `Cn1nc(C(=O)N2CCOCC2)c2c1CCN(C(=O)CCC(=O)NC1CCCCCC1)C2` stands 652 s.
Regarding `CCSc1nnc(-c2nn(C)c3c2CN(C(=O)c2ccccc2)CC3)n1C`, the RP-LC retention time is 716 s.
`O=C(NCc1cccc(C(F)(F)F)c1)c1cn2nc(Cl)ccc2n1` showed an RP-LC retention time of 908 s.
Under `O=C(CCc1nnn2c1CN(C(=O)NC1CCCC1)CC2)N1CCOCC1` stands 615 s; under `Cn1nnc2cc(C(=O)N3CCCCC3)ccc21`, 738 s; under `CC1CCN(C(=O)CN2C(=O)C3CCCCN3c3ccc(S(=O)(=O)N4CCCC4)cc32)CC1` (stereo not drawn), 937 s.
The value for `CCOC(=O)c1ccccc1NC(=O)CSc1nnc2c3cc(-c4ccc(F)cc4)nn3ccn12` was 1030 s.
On to `CCCNC(=O)c1c(OCC2CC2)cc(=O)n2c1CCCCC2`, for which the RP-LC retention time amounted to 683 s.
The molecule `O=C(NC1CCCC1)C1c2ccccc2C(=O)N1Cc1ccc(F)cc1` (stereo not drawn) registered an RP-LC retention time of 862 s.
The molecule `C=CCN1C[C@H](C)N([C@H](c2ccccc2)c2ccc(C(=O)N(CC)CC)cc2)C[C@H]1C` had an RP-LC retention time of 702 s.
The value for `Cc1cccc2cc3cccc(C)c3nc12` was 696 s.
As for `CCOc1ccccc1-c1noc(Cn2c(=O)n(Cc3ccc(C)cc3)c(=O)c3sccc32)n1`, the RP-LC retention time came to 1170 s.
As for `Cc1nn2c(CNS(=O)(=O)Cc3cc(F)cc(F)c3)c(-c3ccccc3)nc2s1`, the RP-LC retention time worked out at 929 s.
Under `Cc1nnsc1C(=O)N1CCc2nc(NC(=O)C3CC3)sc2C1` stands 630 s; under `CCc1ccc(-c2nc(-c3ccc4c(c3)nnn4CCN3CCOCC3)no2)cc1`, 663 s.
Consider `O=S(=O)(c1ccc2c(c1)-c1oncc1CO2)N1CCC2(CC1)OCCO2`, for which the RP-LC retention time worked out at 827 s.
Molecule `CC1(C)CS(=O)(=O)N(c2cccc(C(=O)NCCc3c[nH]c4ccccc34)c2)C1=O` yielded an RP-LC retention time of 825 s.
The value for `Cc1cccc(-c2nnc(-c3cccc(S(=O)(=O)N4CCCCCC4)c3)o2)c1` was 1190 s; that for `COc1ccc(Cl)cc1C(=O)Nc1ccc2c(c1)N(C)C(=O)C(C)(C)CO2` was 955 s.
Molecule `CC(C)CC(=O)Nc1ccc2nc(N3CCN(c4ccc(Cl)cc4)CC3)cc(C(=O)O)c2c1` returned an RP-LC retention time of 746 s.
For the molecule `CC1Cc2cc(S(=O)(=O)CCC(=O)N3CCN(Cc4ccccc4)CC3)ccc2N1C(=O)C1CC1` (stereo not drawn), the RP-LC retention time worked out at 666 s.
Regarding `COc1cc(-c2noc(-c3nc(-c4ccccc4)no3)n2)cc(OC)c1OC`, the RP-LC retention time came out at 1070 s.
Molecule `CC(C)CCC(=O)N1CCC2(CC1)CC(O)CCO2` (stereo not drawn) gave an RP-LC retention time of 644 s.
`COc1ccc(NC(=O)Cc2csc3nc(-c4cccc(Br)c4)cn23)cc1` registered an RP-LC retention time of 937 s.
